Patent publication US20250197425A1, “2,6,9-TRISUBSTITUTED PURINES” (ASTRAZENECA AB, priority 2022, published 2025)
pIC50: −log10 of the molar value. In brackets after ≈: the same amount, converted by molar mass.

How the values were obtained:
CDK2:CCNE1 = CDK2:CCNE1 (Homo sapiens (Human), UniProt P24941); assay: NanoBRET assay in MCF-7 cells, CDK2; assay type: cell-based; settings: transfected MCF-7 cells, 2 hours, n = 1 or average
Summary of the method: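 In live MCF-7 cells, compound added followed by NanoBRET TE Tracer K-9 (stock 200 μM) for CDK2, 2 h at 37° C, 5% CO2.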

[1] = system: POLR2A Ser2 phosphorylation (CDK9); assay: POLR2A Ser2 phosphorylation imaging assay in MCF-7 cells; assay type: cell-based; settings: Homo sapiens, MCF7, 2 h, MCF-7 cells, 2 hours; read-out: POLR2A Ser2 phosphorylation IC50
Summary of the method: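 MCF-7 cells were fixed, permeabilised and immunostained for POLR2A phospho-Ser2, then imaged by high-content microscopy. Levels were normalised to controls and IC50 values derived.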

SKOV3 cells = assay: Cell proliferation CyQUANT assay, SKOV3; assay type: cell-based; settings: Homo sapiens, SK-OV-3, 168 h; CyQUANT cell counts, 7 days
Method: An imaging-based assay was used to investigate changes in cell number in OVCAR3 cells (CCNE1-amplified ovarian cancer cell line) and SKOV3 cells (non-amplified ovarian cancer cell line) treated with test compounds.
Cells were plated in 384 well plates (Perkin-Elmer 6057300) in RPMI-1640/10% FBS/1× L-Glu at 500 cells per well in 30 μL and incubated with test compound at 37° C. and 5% CO2 for 7 days. Cells were then stained using the CyQuant Direct Cell Proliferation Assay Kit (Thermo Cat #C7026) in accordance with the kit protocol. The stained cells were imaged using an Operetta high content imager to generate cell counts and IC50 values were calculated relative to DMSO controls.

[2] = CLint assessment in human liver microsomes (HLM); assay type: in vitro ADME; settings: 1 μM
Summary of the method: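 Microsomes preincubated 8 min with NADPH, then compound added and incubated 30 min at 37° C. Remaining compound measured by LC-MS/MS. t1/2 and CLint calculated, with CLint scaled to incubation volume per mg microsomal protein.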

[3] = Aqueous thermodynamic solubility, shake-flask; assay type: physicochemical; settings: aqueous phosphate buffer, 25 °C, pH 7.4, aqueous buffer, thermodynamic from solid, phosphate buffer 0.1 M, pH 7.4, 24 hours
Summary of the method: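 Dried compound (after DMSO evaporation) was equilibrated in 0.1 M phosphate buffer pH 7.4 with stirring for 24 h at 25° C. Undissolved material was removed by double centrifugation, and the supernatant was diluted in water and quantified by UPLC/MS/MS.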

[4] = system: 97 targets (GPCRs, ion channels, transporters, enzymes, kinases); assay: Secondary pharmacology panel (Eurofins CEREP); settings: compared with Compound 6
Method: Secondary pharmacology assays were performed at Eurofins CEREP using standard experimental techniques. Specifically, radioligand binding assays were used to assess the ability of test compounds to interact with G-protein coupled receptors (GPCRs), ion channels, and transmembrane transporters. Assays measuring substrate turnover or phosphorylation by isolated proteins were used for enzyme and kinase targets, allowing direct determination of the mode of action of the tested compounds.

Row | SMILES | pIC50 (CDK2:CCNE1) | pIC50 [1] | pIC50 (SKOV3 cells) | HLM CLint [2] [µL/min/mg] | solubility at 24 h [3] [µM] | secondary pharmacology profile [4]
1 | CCNS(=O)(=O)N1CC[C@H](Nc2nc(N[C@@H](CC)[C@@H](C)O)nc3c2ncn3C)C1 [Example 53, (S)—N-ethyl-3-((2-(((2R,3S)-2-hydroxypentan-3-yl)amino)-9-methyl-9H-purin-6-yl)amino)pyrrolidine-1-sulfonamide] | 7.37 | < 4.52 | 4.97 | – | – | –
2 | CCNS(=O)(=O)N1CC[C@H](Nc2nc(N[C@@H](CO)C3CC3)nc3c2ncn3C)C1 [Example 19, (S)-3-((2-(((R)-1-cyclopropyl-2-hydroxyethyl)amino)-9-methyl-9H-purin-6-yl)amino)-N-ethylpyrrolidine-1-sulfonamide] | 7.57 | 4.75 | 5.39 | – | – | –
3 | CCn1cnc2c(N[C@@H]3CN(S(=O)(=O)c4ncc[nH]4)C[C@H]3F)nc(N[C@@H](CO)C3CC3)nc21 (relative stereo) [Example 17, (R)-2-((6-(((3R*,4R*)-1-((1H-imidazol-2-yl)sulfonyl)-4-fluoropyrrolidin-3-yl)amino)-9-ethyl-9H-purin-2-yl)amino)-2-cyclopropylethan-1-ol] | 8.05 | 5.41 | 5.93 | 46 | 280 (≈ 134 µg/mL) | –
4 | CCn1cnc2c(N[C@H]3CCN(S(=O)(=O)NC)C3)nc(-c3cccc4c3CC[C@]4(C)O)nc21 (relative stereo) [Example 3, (S)-3-((9-ethyl-2-((R*)-1-hydroxy-1-methyl-2,3-dihydro-1H-inden-4-yl)-9H-purin-6-yl)amino)-N-methylpyrrolidine-1-sulfonamide] | 7.74 | 5.19 | – | 45.2 | 48 (≈ 22.6 µg/mL) | broadly similar secondary pharmacology to Compound 6
